In data set [1] the test system is Mus musculus. Kind of data set: Anticonvulsant activity in i.p. dosed Mus musculus (mouse) assessed as protection against maximal-electric shock-induced seizures measured at 0.5 hr. It is filed as functional. The conditions noted are these: ip, read-out: MED.
Data set [2] has as its system Mus musculus. The data set is described as follows: Neurotoxicity in i.p. dosed Mus musculus (mouse) assessed as motor impairment measured at 4 hr by rotarod test. It is filed as toxicity, organism-based. The conditions noted are these: in vivo, ip.
Data set [3] concerns Mus musculus. The data set is described as follows: Anticonvulsant activity in i.p. dosed Mus musculus (mouse) assessed as protection against maximal-electric shock-induced seizures measured at 4 hr. It is filed as functional. The conditions noted are these: ip, read-out: MED.
For data set [4], the system named is Mus musculus. Kind of data set: Neurotoxicity in i.p. dosed Mus musculus (mouse) assessed as motor impairment measured at 0.5 hr by rotarod test. It is filed as toxicity, organism-based. To be noted: in vivo, ip.
The test system of data set [5] is Mus musculus. The data set is described as follows: Anticonvulsant activity in Mus musculus (mouse) assessed as protection against scMET-induced clonic seizures at 30 to 300 mg/kg, ip measured at 0.5 to 4 hr. It is filed as functional, organism-based.
The subject of data set [6] is Mus musculus. The data set is described as follows: Anticonvulsant activity in Mus musculus (mouse) assessed as protection against 6 Hz psychomotor-induced clonic seizures at 100 mg/kg, i.p. measured at 1 hr relative to control. The conditions noted are these: route intraperitoneal. In kind it is functional.
The subject of data set [7] is Mus musculus. The data set is described as follows: Neurotoxicity in Mus musculus (mouse) assessed as motor impairment at 100 mg/kg, ip measured at 1 hr by rotarod test relative to control. Set-up: dose 100 mg/kg, route intraperitoneal. To be noted: in vivo. It is filed as toxicity, organism-based.
The subject of data set [8] is Mus musculus. The data set is described as follows: Anticonvulsant activity in Mus musculus (mouse) assessed as protection against maximal-electric shock-induced seizures at 30 to 300 mg/kg, ip measured at 4 hr. In kind it is functional, organism-based.
Data set [9] relates to Mus musculus. The data set is described as follows: Neurotoxicity in Mus musculus (mouse) assessed as motor impairment at 100 mg/kg, ip measured at 0.25 hr by rotarod test relative to control. Set-up: dose 100 mg/kg, route intraperitoneal. In kind it is toxicity, organism-based. To be noted: in vivo.
For data set [10], the system named is Mus musculus. The data set is described as follows: Anticonvulsant activity in Mus musculus (mouse) assessed as protection against 6 Hz psychomotor-induced clonic seizures at 100 mg/kg, ip measured at 2 hr relative to control. To be noted: route intraperitoneal. In kind it is functional.
Data set [11] concerns Mus musculus. Kind of data set: Neurotoxicity in Mus musculus (mouse) assessed as motor impairment at 100 mg/kg, ip measured at 4 hr by rotarod test relative to control. It is filed as toxicity, organism-based. Set-up: dose 100 mg/kg, route intraperitoneal. To be noted: in vivo.
The subject of data set [12] is Mus musculus. Kind of data set: Anticonvulsant activity in Mus musculus (mouse) assessed as protection against 6 Hz psychomotor-induced clonic seizures at 100 mg/kg, i.p. measured at 0.25 hr relative to control. It is filed as functional. To be noted: route intraperitoneal.
The test system of data set [13] is Mus musculus. The data set is described as follows: Anticonvulsant activity in Mus musculus (mouse) assessed as protection against 6 Hz psychomotor-induced clonic seizures at 100 mg/kg, i.p. measured at 0.5 hr relative to control. To be noted: route intraperitoneal. In kind it is functional.
Data set [14] relates to Mus musculus. Kind of data set: Neurotoxicity in Mus musculus (mouse) assessed as motor impairment at 30 to 300 mg/kg, ip measured at 0.5 hr by rotarod test. To be noted: in vivo. In kind it is toxicity, organism-based. Set-up: dose 30-300 mg/kg, route intraperitoneal.
The subject of data set [15] is Mus musculus. The data set is described as follows: Neurotoxicity in Mus musculus (mouse) assessed as motor impairment at 100 mg/kg, ip measured at 0.5 hr by rotarod test relative to control. It is filed as toxicity, organism-based. To be noted: in vivo. Set-up: dose 100 mg/kg, route intraperitoneal.
For data set [16], the system named is Mus musculus. Kind of data set: Anticonvulsant activity in Mus musculus (mouse) assessed as protection against 6 Hz psychomotor-induced clonic seizures at 100 mg/kg, i.p. measured at 4 hr relative to control. In kind it is functional.
For data set [17], the system named is Mus musculus. The data set is described as follows: Neurotoxicity in Mus musculus (mouse) assessed as motor impairment at 100 mg/kg, ip measured at 2 hr by rotarod test relative to control. In kind it is toxicity, organism-based. Set-up: dose 100 mg/kg, route intraperitoneal. The conditions noted are these: in vivo.

The structures appear in SMILES notation. Active and inactive are the calls of the source. The calls are words filed in the database; no cut-off is given here.

In the case of `NC(=O)N1c2ccccc2C=Cc2ccccc21` [CARBAMAZEPINE], the minimal effective dose turned out to be 30 mg/kg with Mus musculus [1] and 100 mg/kg in the data set with Mus musculus [3]. Also, the MTC was 300 mg/kg in the data set on Mus musculus [2] and 100 mg/kg with Mus musculus [4]. The result with Mus musculus [5] was inactive.
In the case of `Cc1ccc(NC(=O)NN)cc1`, the Activity in the data set with Mus musculus [6] is 50%; with Mus musculus [7], “Non-toxic”; in the data set on Mus musculus [9] it was “Non-toxic”; in the data set with Mus musculus [10] it was 25%; in the data set with Mus musculus [11], 50%; in the data set on Mus musculus [12], 100%. Further, the Activity is listed as 50% in the data set on Mus musculus [13], “Non-toxic” in the data set on Mus musculus [14], “Non-toxic” in the data set on Mus musculus [15] and 25% with Mus musculus [17]. In addition, the minimal effective dose with Mus musculus [1] was determined as 300 mg/kg. For the same compound, the outcome with Mus musculus [8], in the data set with Mus musculus [16] and with Mus musculus [5] was inactive. Also, the MTC in the data set on Mus musculus [2] amounted to 300 mg/kg.
Consider `O=C1NC(=O)C(c2ccccc2)(c2ccccc2)N1` [PHENYTOIN], for which the minimal effective dose with Mus musculus [1] and in the data set on Mus musculus [3] was 30 mg/kg throughout. The MTC in the data set on Mus musculus [2] and in the data set on Mus musculus [4] was 100 mg/kg each time. In addition, the outcome in the data set with Mus musculus [5] was inactive.

For the origin of these results see ChEMBL document CHEMBL3045097, “Synthesis and anticonvulsant evaluation of 2-(substituted benzylidene/ethylidene)-N-(substituted phenyl)hydrazinecarboxamide analogues” (Med Chem Res, 2013).
